Results reported in patent publication US12280046B2, “Melanocortin subtype-2 receptor (MC2R) antagonist for the treatment of disease” (Crinetics Pharmaceuticals, Inc., priority 2021, dated 2025).

Target: T1, human MC2R (Homo sapiens, UniProt Q01718)
T1 construct: host or cells: CellSensor CRE-bla CHO-K1
Test: Inhibition of ACTH binding: radioactive competition binding assay, hMC2R membranes
Protocol: Crude membrane fractions are prepared from CellSensor CRE-bla CHO-K1 cells stably expressing functional hMC2 receptor (ThermoFisher #K1483). The cells are cultured to 85-100% confluency in growth media [GlutaMax DMEM (Gibco #10569-010) supplemented with 10% dialyzed fetal bovine serum (Gemini Bio-Products #100-108), 0.1 mM non-essential amino acids (Gibco #11140-050), 100 U/mL penicillin; 100 μg/mL streptomycin; 2 mM L-glutamine (Gemini Bio-Products #400-110), 5 μg/mL blasticidin (GoldBio #B-800-100), 100 μg/mL zeocin (Invitogen #R25005) and 600 μg/mL hygromycin B (GoldBio #31282-04-9)]. Cells were collected and washed in Dulbecco's phosphate buffered saline (Corning #21-031-CV). […]
The inhibition of binding to the human MC2R receptor was measured in a radioactive competition binding assay using the radiolabeled [^125I]-TYR^23]-ACTH (1-39) ligand (PerkinElmer #NEX083, custom synthesis) as the probe ligand for the receptor. […] The radioactive signal was detected using a MicroBetaTriLux 1450 LSC (PerkinElmer). […]
The selectivity over other human MCR subtypes was evaluated using commercially available MC1R, MC3R, MC4R, and MCSR membrane binding assays. […]

T1 sequence (Q01718 whole entry): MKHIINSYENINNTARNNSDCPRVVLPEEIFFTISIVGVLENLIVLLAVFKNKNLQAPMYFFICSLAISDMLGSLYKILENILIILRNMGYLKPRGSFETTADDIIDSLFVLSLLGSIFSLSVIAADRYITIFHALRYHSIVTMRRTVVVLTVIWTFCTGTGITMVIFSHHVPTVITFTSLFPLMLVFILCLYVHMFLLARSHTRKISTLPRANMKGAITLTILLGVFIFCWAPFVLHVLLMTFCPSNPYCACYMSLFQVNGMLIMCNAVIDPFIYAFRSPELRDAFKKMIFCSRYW
T1 sequence (Q8TCY5 whole entry partner): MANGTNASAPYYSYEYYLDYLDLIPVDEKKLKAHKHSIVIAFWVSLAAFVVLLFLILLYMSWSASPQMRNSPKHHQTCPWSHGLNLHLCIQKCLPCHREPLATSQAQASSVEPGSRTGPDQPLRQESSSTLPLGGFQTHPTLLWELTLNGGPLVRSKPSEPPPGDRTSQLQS

Ki (hMC2R membranes, [125I]-Tyr23-ACTH(1-39) probe, read-out: equilibrium inhibitory constant (Ki) in a binding assay): < 10 nM | selectivity for MC2R versus the other human MCRs (over MC1R, MC3R, MC4R, MCSR): > 2900 fold
Structure (SMILES): CCOc1ccccc1-c1ccc(N2CCN(C(=O)C3(C(F)(F)F)CCC3)C[C@H]2CC)c(C(=O)N[C@@H]2CN3CCC2CC3)n1 [Compound 1, 6-(2-ethoxyphenyl)-3-((R)-2-ethyl-4-(1-(trifluoromethyl)cyclobutane-1-carbonyl)piperazin-1-yl)-N—((S)-quinuclidin-3-yl)picolinamide]
